The text below walks through data of patent US7846928B2, “Substituted pyrazolopyridines and salts thereof, pharmaceutical compositions comprising same, methods of preparing same and uses of same” (Bayer Schering Pharma AG, priority 2006, dated 2010).

The target in this assay is Tie2 (Homo sapiens, UniProt Q02763). The assay is described as follows: Tie2 ELISA assay (assay 1): cellular Tie2 autophosphorylation in Tie2-transfected CHO cells stimulated by angiopoietin-2. The assay is classed as cell-based. Further details: expressed in transfected cells; host or cells: CHO (DHFR-deficient), stably transfected: CHO Tie2/DHFR. To be noted: CHO Tie2/DHFR cells, Ang2 stimulated, Tie2 autophosphorylation sandwich-ELISA; pIC50 = -log IC50 molar; read-out: Tie 2 activity (assay 1). The method, then: Cellular activity of compounds of the present invention as inhibitors of Tie2 kinase activity was measured employing a Tie2 ELISA assay as described in the following paragraphs. Herein CHO cell-cultures, which are stably transfected by known techniques with Tie2 using DHFR deficiency as selection marker, are stimulated by angiopoietin-2. The specific autophosphorylation of Tie2 receptors is quantified with a sandwich-ELISA using anti-Tie2 antibodies for catch and anti-phosphotyrosine antibodies coupled to HRP for detection.
Chain of Tie2 (Q02763 23-1124): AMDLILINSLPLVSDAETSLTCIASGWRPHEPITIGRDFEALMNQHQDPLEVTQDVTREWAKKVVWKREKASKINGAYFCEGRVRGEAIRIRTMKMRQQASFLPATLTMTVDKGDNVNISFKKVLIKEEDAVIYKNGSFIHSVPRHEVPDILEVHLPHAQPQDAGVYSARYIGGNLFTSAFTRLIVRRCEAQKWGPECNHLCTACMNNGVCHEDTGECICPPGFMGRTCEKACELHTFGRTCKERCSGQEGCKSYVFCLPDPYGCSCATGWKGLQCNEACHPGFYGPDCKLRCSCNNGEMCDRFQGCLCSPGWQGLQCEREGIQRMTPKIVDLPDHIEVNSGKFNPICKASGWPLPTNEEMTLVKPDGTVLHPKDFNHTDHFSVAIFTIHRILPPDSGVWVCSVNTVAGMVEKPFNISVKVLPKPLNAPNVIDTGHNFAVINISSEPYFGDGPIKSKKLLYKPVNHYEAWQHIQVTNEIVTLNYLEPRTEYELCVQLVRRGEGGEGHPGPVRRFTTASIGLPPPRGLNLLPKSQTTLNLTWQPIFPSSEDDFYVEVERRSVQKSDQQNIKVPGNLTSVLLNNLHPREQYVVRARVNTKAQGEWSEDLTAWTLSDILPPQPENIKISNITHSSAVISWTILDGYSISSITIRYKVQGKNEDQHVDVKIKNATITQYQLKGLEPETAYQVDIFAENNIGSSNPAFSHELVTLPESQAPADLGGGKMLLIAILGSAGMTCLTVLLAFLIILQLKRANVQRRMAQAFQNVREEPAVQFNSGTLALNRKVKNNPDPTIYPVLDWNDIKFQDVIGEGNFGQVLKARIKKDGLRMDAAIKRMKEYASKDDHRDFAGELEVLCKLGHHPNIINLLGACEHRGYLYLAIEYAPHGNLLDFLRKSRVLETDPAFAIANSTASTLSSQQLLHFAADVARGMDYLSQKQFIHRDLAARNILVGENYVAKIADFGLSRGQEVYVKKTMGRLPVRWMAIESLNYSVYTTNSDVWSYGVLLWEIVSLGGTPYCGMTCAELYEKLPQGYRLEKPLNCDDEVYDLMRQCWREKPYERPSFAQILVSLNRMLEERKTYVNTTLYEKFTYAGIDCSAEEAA
• 96 well tissue culture plate, sterile, Greiner • 96 well FluoroNunc plate MaxiSorp Surface C, Nunc • 96 well plate polypropylene for compound dilution in DMSO • CHO Tie2/DHFR (transfected cells) • PBS−; PBS++, DMSO • MEM alpha Medium with Glutamax-I without Ribonucleosides and • Deoxyribonucleosides (Gibco #32561-029) • with 10% FCS after dialysis! and 1% PenStrep • Lysis buffer: 1 Tablet “Complete” protease inhibitor • 1 cap Vanadate (1 mL>40 mg/mL; working solution 2 mM) • ad 50 mL with Duschl-Puffer • pH 7.6 • Anti-Tie2-antibody 1:425 in Coating Buffer pH 9.6 • Stock solution: 1.275 mg/mL>working: 3 μg/mL • PBST: 2 bottles PBS(10×)+10 ml Tween, fill up with VE-water • RotiBlock 1:10 in VE-water • Anti-Phosphotyrosine HRP-Conjugated 1:10000 in 3% TopBlock • 3% TopBlock in PBST • BM Chemiluminescence ELISA Substrate (POD) • solution B1:100 solution A • SF9 cell culture medium • Ang2-Fc in SF9 cell culture medium Cell Experiment: • Dispense 5×10^4 cells/well/98 μL in 96 well tissue culture plate • Incubate at 37° C./5% CO2 • After 24 h add compounds according to desired concentrations • Add also to control and stimulated values without compounds 2 μL DMSO • And mix for a few min at room temperature • Add 100 μL Ang2-Fc to all wells except control, which receives insect medium • Incubate 20 min at 37° C. • Wash 3× with PBS++ • Add 100 μl Lysis buffer/well and shake a couple of min at room temperature • Store lysates at 20° C. before utilizing for the ELISA Performance of Sandwich-ELISA • Coat 96 well FluoroNunc Plate MaxiSorp Surface C with anti-Tie2 mAb • 1:425 in Coating buffer pH 9.6; 100 μL/well overnight at 4° C. • Wash 2× with PBST • Block plates with 250 μL/well RotiBlock 1:10 in VE-water • Incubate for 2 h at room temperature or overnight at 4° C. shaking • Wash 2× in PBST • Add thawed lysates to wells and incubate overnight shaking at 4° C. • Wash 2× with PBST • Add 100 μL/well anti-Phosphotyrosine HRP-Conjugated 1:10000 in 3% • TopBlock (3% TopBlock in PBST) and incubate overnight under shaking • Wash 6× with PBST • Add 100 μL/well BM Chemiluminescence ELISA Substrate (POD) • solutions 1 und 2 (1:100) • Determine luminescence with the LumiCount. Assay 2: Tie-2-Kinase HTRF-Assay without Kinase Preactivation
With `Cn1ncc2c(-c3ccc(NC(=O)Nc4cccc(C(F)(F)F)c4)cc3)ccnc21` [1.4, 1-[4-(1-Methyl-1H-pyrazolo[3,4-b]pyridin-4-yl)-phenyl]-3-(3-trifluoromethyl-phenyl)-urea], the IC50 is under 501 nM.

For `Cc1ccc(F)c(NC(=O)Nc2ccc(-c3cc(CN4CCOCC4)nc4c3cnn4C)cc2)c1` [3.5, 1-(2-Fluoro-5-methyl-phenyl)-3-[4-(1-methyl-6-morpholin-4-ylmethyl-1H-pyrazolo[3,4-b]pyridin-4-yl)-phenyl]-urea], the IC50 was under 501 nM.

On to `CN1CCN(Cc2ccc(NC(=O)Nc3ccc(-c4cc(C(C)(C)C)nc5[nH]ncc45)cc3)cc2C(F)(F)F)CC1` [1.15, 1-[4-(6-tert-Butyl-1H-pyrazolo[3,4-b]pyridin-4-yl)-phenyl]-3-[4-(4-methyl-piperazin-1-ylmethyl)-3-trifluoromethyl-phenyl]-urea], for which the IC50 was under 501 nM.

`Cc1cc(-c2ccc(NC(=O)Nc3cccc(C(F)(F)F)c3)cc2)c2cn[nH]c2n1` [1.18, 1-[4-(6-Methyl-1H-pyrazolo[3,4-b]pyridin-4-yl)-phenyl]-3-(3-trifluoromethyl-phenyl)-urea]: the IC50 is under 501 nM.

Regarding `CCc1cccc(NC(=O)Nc2ccc(-c3cc(C(C)(C)C)nc4[nH]ncc34)cc2)c1` [1.1, 1-[4-(6-tert-Butyl-1H-pyrazolo[3,4-b]pyridin-4-yl)-phenyl]-3-(3-ethylphenyl)-urea], the IC50 is under 501 nM.

As for `Cc1cccc(NC(=O)Nc2ccc(-c3cc(C(C)(C)C)nc4[nH]ncc34)cc2)c1` [1.11, 1-[4-(6-tert-Butyl-1H-pyrazolo[3,4-b]pyridin-4-yl)-phenyl]-3-m-tolyl-urea], the IC50 fell in the range of 501 to 1000 nM.

`Cc1cc(-c2ccc(NC(=O)Nc3ccc(F)c(C(F)(F)F)c3)cc2)c2cnn(C)c2n1` [2.5, 1-[4-(1,6-Dimethyl-1H-pyrazolo[3,4-b]pyridin-4-yl)-phenyl]-3-(4-fluoro-3-trifluoromethyl-phenyl)-urea]: the IC50 fell in the range of 501 to 1000 nM.

`COc1ccc(C(F)(F)F)cc1NC(=O)Nc1ccc(-c2cc(C)nc3c2cnn3C)cc1` [2.7, 1-[4-(1,6-Dimethyl-1H-pyrazolo[3,4-b]pyridin-4-yl)-phenyl]-3-(2-methoxy-5-trifluoromethyl-phenyl)-urea]: the IC50 is under 501 nM.

With `CN1CCC(Oc2ccc(NC(=O)Nc3ccc(-c4ccnc5c4cnn5C)cc3)cc2C(F)(F)F)CC1` [1.23, 1-[4-(1-Methyl-piperidin-4-yloxy)-3-trifluoromethyl-phenyl]-3-[4-(1-methyl-1H-pyrazolo[3,4-b]pyridin-4-yl)-phenyl]-urea], the IC50 was under 501 nM.

Turning to `CC(C)c1cc(-c2ccc(NC(=O)Nc3cccc(C(F)(F)F)c3)cc2)c2cn[nH]c2n1` [1.2, 1-[4-(6-Isopropyl-1H-pyrazolo[3,4-b]pyridin-4-yl)-phenyl]-3-(3-trifluoromethyl-phenyl)-urea], the IC50 was under 501 nM.

In the case of `Cn1ncc2c(-c3ccc(NC(=O)Nc4cc(C(F)(F)F)ccc4F)cc3)ccnc21` [1.8, 1-(2-Fluoro-5-trifluoromethyl-phenyl)-3-[4-(1-methyl-1H-pyrazolo[3,4-b]-pyridin-4-yl)-phenyl]-urea], the IC50 is under 501 nM.

Regarding `CCc1cccc(NC(=O)Nc2ccc(-c3cc(CN4CCOCC4)nc4c3cnn4C)cc2)c1` [3.4, 1-(3-Ethyl-phenyl)-3-[4-(1-methyl-6-morpholin-4-ylmethyl-1H-pyrazolo[3,4-b]pyridin-4-yl)-phenyl]-urea], the IC50 is under 501 nM.

As to `Cn1ncc2c(-c3ccc(NC(=O)Nc4cccc(C(F)(F)F)c4)cc3)cc(C3CCC3)nc21` [1.37, 1-[4-(6-Cyclobutyl-1-methyl-1H-pyrazolo[3,4-b]pyridin-4-yl)-phenyl]-3-(3-trifluoromethyl-phenyl)-urea], the IC50 was under 501 nM.

`Cc1cc(-c2ccc(NC(=O)Nc3cc(F)cc(C(F)(F)F)c3)cc2)c2cnn(C)c2n1` [2.4, 1-[4-(1,6-Dimethyl-1H-pyrazolo[3,4-b]pyridin-4-yl)-phenyl]-3-(3-fluoro-5-trifluoromethyl-phenyl)-urea]: the IC50 is under 501 nM.

On to `CN(C)C(=O)C1(c2cc(-c3ccc(NC(=O)Nc4cccc(C(F)(F)F)c4)cc3)c3cnn(C)c3n2)CC1` [1.26, 1-(1-Methyl-4-{4-[3-(3-trifluoromethyl-phenyl)-ureido]-phenyl}-1H-pyrazolo[3,4-b]pyridin-6-yl)-cyclopropane-carboxylic acid dimethylamide], for which the IC50 is under 501 nM.

As for `CN1CCN(Cc2ccc(NC(=O)Nc3ccc(-c4ccnc5c4cnn5C)cc3)cc2C(F)(F)F)CC1` [1.24, 1-[4-(4-Methyl-piperazin-1-ylmethyl)-3-trifluoromethyl-phenyl]-3-[4-(1-methyl-1H-pyrazolo[3,4-b]pyridin-4-yl)-phenyl]-urea], the IC50 was under 501 nM.

Turning to `Cn1ncc2c(-c3ccc(NC(=O)Nc4cccc(C(F)(F)F)c4)cc3)cc(C3CCCCC3)nc21` [1.38, 1-[4-(6-Cyclohexyl-1-methyl-1H-pyrazolo[3,4-b]pyridin-4-yl)-phenyl]-3-(3-trifluoromethyl-phenyl)-urea], the IC50 is under 501 nM.

With `CN1CCN(Cc2ccc(NC(=O)Nc3ccc(-c4ccnc5[nH]ncc45)cc3)cc2C(F)(F)F)CC1` [1.33, 1-[4-(4-Methyl-piperazin-1-yl-methyl)-3-trifluoromethyl-phenyl]-3-[4-(1H-pyrazolo[3,4-b]pyridin-4-yl)-phenyl]-urea], the IC50 is under 501 nM.

Regarding `O=C(Nc1ccc(-c2ccnc3[nH]ncc23)cc1)Nc1cccc(C(F)(F)F)c1` [1.20, 1-[4-(1H-Pyrazolo[3,4-b]pyridin-4-yl)-phenyl]-3-(3-trifluoromethyl-phenyl)-urea], the IC50 is under 501 nM.

As to `Cc1ccc(F)c(NC(=O)Nc2ccc(-c3ccnc4c3cnn4C)cc2)c1` [1.7, 1-(2-Fluoro-5-methyl-phenyl)-3-[4-(1-methyl-1H-pyrazolo[3,4-b]pyridin-4-yl)-phenyl]-urea], the IC50 was under 501 nM.

As to `CC(C)c1cc(-c2ccc(NC(=O)Nc3cccc(C(F)(F)F)c3)cc2)c2cnn(C)c2n1` [1.3, 1-[4-(6-Isopropyl-1-methyl-1H-pyrazolo[3,4-b]pyridin-4-yl)-phenyl]-3-(3-trifluoromethyl-phenyl)-urea], the IC50 was under 501 nM.

In the case of `Cc1ccc(F)c(NC(=O)Nc2ccc(-c3cc(C4(C(=O)N(C)C)CC4)nc4c3cnn4C)cc2)c1` [1.29, 1-(4-{4-[3-(2-Fluoro-5-methyl-phenyl)-ureido]-phenyl}-1-methyl-1H-pyrazolo[3,4-b]pyridin-6-yl)-cyclopropane-carboxylic acid dimethylamide], the IC50 was under 501 nM.

`Cc1ccc(F)c(NC(=O)Nc2ccc(-c3ccnc4[nH]ncc34)cc2)c1` [1.22, 1-(2-Fluoro-5-methyl-phenyl)-3-[4-(1H-pyrazolo[3,4-b]pyridin-4-yl)-phenyl]-urea]: the IC50 is under 501 nM.

With `Cn1ncc2c(-c3ccc(NC(=O)Nc4cccc(C(F)(F)F)c4)cc3)cc(CN3CCOCC3)nc21` [3.2, 1-[4-(1-Methyl-6-morpholin-4-ylmethyl-1H-pyrazolo[3,4-b]pyridin-4-yl)-phenyl]-3-(3-trifluoromethyl-phenyl)-urea], the IC50 is under 501 nM.
